We go through two molecules from patent publication US12589087B2, “Enantiomer selective action on neurotransmission” (The Board of Trustees of the Leland Stanford Junior …, priority 2021, dated 2026).

Series [1] is described as follows: Metabolism in synaptosomes (GABA shunt, glutamate-glutamine cycle). The series is classed as in vitro ADME. The note with it: mouse, mouse cerebral synaptosomes; synaptosomes preincubated with 100 μM, normal KRP buffer, 37° C.; read-out: synaptosomal concentration, estimated half life. The procedure:
To each tube, a 5 μL aliquot of a test compound solution (final concentration 100 μM) in Buffer KRP or Buffer KRP alone were added. The samples were incubated for 15 min at 37° C., briefly chilled on ice, and then immediately centrifuged and washed twice by resuspension-centrifugation with Buffer S (0.5 mL). The pellets were then resuspended in Buffer KRP (500 μL). Samples were then immediately centrifuged or incubated for 5, 10, 15, 20, 25 or 30 min at 37° C. and then centrifuged and washed by resuspension-centrifugation with Buffer S (0.5 mL). Resulting pellets were resuspended in 170 μL of 0.1% aqueous formic acid, mixed with 330 μL of ACN.
To each tube, 5 μL of 2MeGlu solution (final concentration 100 μM) in Buffer KRP or Buffer KRP alone were added. The samples were incubated for 15 min at 37° C., briefly chilled on ice, and then immediately centrifuged and washed twice by resuspension-centrifugation with Buffer S (0.5 mL). The pellets were then resuspended in Buffer KRP (200 μL). Samples were then kept on ice or incubated for 10, 20, 30, 40 or 50 min at 37° C. and then chilled on ice. Then all samples were centrifuged, 200 μL of supernatants were collected, and the pellets were suspended in 200 μL of 80% ACN. Supernatants and pellet suspensions were diluted with 250 μL of ACN and 50 μL of 10 μM d5-Glu in water as internal standard.

Series [2] has as its system mouse hippocampal slice cultures. The series can be described thus: Kainic acid neurodegeneration in hippocampal slice cultures (propidium iodide). The series is classed as cell-based. The procedure:
We employed a standard technique of ex vivo experimentation to determine the efficacy of 2MeGlu, 2MeGln, and 4APA to prevent neurodegeneration. Mouse hippocampal slice cultures were prepared and then exposed to one of the three test compounds at either 5 or 50 μM for one hour. Then media was changed to contain either 2 or 5 μM kanic acid (KA) for 24 hr. […] After 24, the amount of neurodegeneration was assayed with propidium iodide staining. Increasing the dose of KA led to greater neurodegeneration at 5 μM than at 2 μM.

In another series the target is T1, human glutaminase GLS1 (Homo sapiens, UniProt O94925).
T1 construct: purchased Sigma SRP0516
T1 sequence (O94925 55-669): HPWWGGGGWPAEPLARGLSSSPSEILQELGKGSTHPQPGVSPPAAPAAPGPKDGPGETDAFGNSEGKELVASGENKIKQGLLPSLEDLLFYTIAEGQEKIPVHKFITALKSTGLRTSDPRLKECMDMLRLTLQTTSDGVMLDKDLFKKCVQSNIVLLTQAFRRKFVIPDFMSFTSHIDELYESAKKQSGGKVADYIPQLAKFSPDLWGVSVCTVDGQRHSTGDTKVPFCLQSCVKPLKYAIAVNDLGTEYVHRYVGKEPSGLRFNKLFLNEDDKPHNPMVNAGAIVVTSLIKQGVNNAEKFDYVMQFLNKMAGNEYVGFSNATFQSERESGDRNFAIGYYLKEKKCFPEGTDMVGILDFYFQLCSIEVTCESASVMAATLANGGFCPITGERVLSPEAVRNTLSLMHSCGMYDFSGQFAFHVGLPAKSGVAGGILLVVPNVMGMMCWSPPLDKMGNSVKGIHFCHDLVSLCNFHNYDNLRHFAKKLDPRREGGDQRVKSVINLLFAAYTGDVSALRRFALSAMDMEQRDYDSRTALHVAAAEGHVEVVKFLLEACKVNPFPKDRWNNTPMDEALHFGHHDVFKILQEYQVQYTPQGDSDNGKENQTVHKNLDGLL
The series can be described thus: Catalysis of 2MeGln hydrolysis by GLS1 glutaminase. The series is classed as biochemical. The note with it: 10 mM substrate, 5 ng/mL enzyme, phosphate pH 7.4. Here is the method: The procedure was adapted from an existing protocol. To a reaction mixture in a 1.5 mL microcentrifuge tube containing 10 mM rac-2MeGln or L-Gln-^13C2 in 100 mM phosphate pH 7.4 buffer made in 20% atom ^18O water, recombinant GLS1 (final concentration: 5 ng/mL) was added. The tubes were incubated in a preheated thermomixer at 37° C. and periodically shaken at 600 rpm (30 s on, 30 s off). 5 μL aliquots were collected in triplicate every 5 min and immediately diluted with 195 μL of cold 60% ACN containing 10 μM Glu-d5 and Gln-d5 as internal standards in a 96 well plate. After collecting all samples, the plate was shaken at 1000 rpm for 5 min at room temperature, and then stored at −80° C. Before analysis the plate was thawed and 10 μL aliquots of the extracted reaction mixtures were diluted with 190 μL of 90% acetonitrile.
The quantification of the newly formed 2MeGlu in the presence of the preexisting trace amounts was performed in the following way. Peak area ratio of Glu-^13C2 to Glu-^13C2^18O was calculated in all samples containing Glu-^13C2. The mean ratio value was then applied to calculate the hypothetical peak area of the newly formed 2MeGlu based on the directly measured 2MeGlu-^18O peak area. The ratio of the newly formed 2MeGlu peak area and the total 2MeGlu peak area was applied to calculate the concentration of the newly formed 2MeGlu from the total 2MeGlu concentration determined directly using the calibration curve.

Series [3] deals with murine primary cerebral cortical neuron cultures. The series can be described thus: Neuronal transport and metabolism of 2MeGln. The note with it: 1 mM substrate, 2 h, 37° C., neurons. The format is cell-based, mouse. Here is the method:
The procedure was adapted from an existing protocol. Wild-type (WT) C57BL/6J mating pairs were housed according to Stanford IACUC protocol. On day P0, pups were euthanized and brains dissected in cold HBSS (without Ca^2+ or Mg^2+). The forebrain was microdissected to isolate the cortex and hippocampus. These brain regions were minced in cold HBSS before trypsinization at 37° C. for 9 minutes, followed by trituration, through 2 glass polished Pasteur pipettes. The resulting cell suspension was passed through a 100 μm filter to isolate single cells which were sedimented at 250 g for 5 minutes. The cell pellet was then resuspended in complete Neural Basal Media (Neural Basal Media+Glutamax+B-27 Plus Supplement+Pen/Strep)+10% FBS, counted using a hemocytometer and plated at 1×10^6 cells per mL into a 24 well plate (1 mL per well) coated with poly-D-lysine and laminin. Cultures were grown at 37° C./5% CO2 in a tissue culture incubator. Media was exchanged 50% on day 1 in vitro (1 DIV) with fresh complete Neural Basal Media without FBS and thereafter every other day with the same media. On 3 DIV the media was spiked with 2 μM AraC to limit glial growth. On 10 DIV the media was completely replaced with 500 μL Neural Basal Media containing B-27 Plus Supplement+Pen/Strep without added Glutamax but instead containing 1 mM substrate at 37° C. for 2 h. […]

For `CC(N)(CCC(=O)O)C(=O)O` (racemic) [rac-2MeGlu, rac-2-Methylglutamic acid], in series [1], the half-life at 100 μM was 21 min. Besides, in series [2] (50 μM compound, lower dose of KA (2 μM)), the reduction of neurodegeneration result is reported as “approximately 50%”. In series [2] (5 or 50 μM compound, 5 μM KA), the “neuroprotection at the higher dose of KA” value is listed as “Neither dose of 2MeGlu or 2MeGln was neuroprotective”.
Regarding `NC(=O)CC[C@H](N)C(=O)O` [Gln, L-glutamine, reference compound], on human glutaminase GLS1, the “apparent reaction rate of GLS1 hydrolysis” value was found to be 65 µM/min. Also, the “intracellular [1,2-13C]Gln, lower than 2MeGln in corresponding samples” value in series [3] is on record as 2 fold.
